The term IC50 denotes the concentration needed to halve the response being measured.

Experimental findings from publication PMC9168620, “Genetic validation of Aspergillus fumigatus phosphoglucomutase as a viable therapeutic target in invasive aspergillosis” (The Journal of Biological Chemistry, 2022) are described below.

Several values for one entry are separate records, joined by “and”; a condition that tells them apart may be missing. Equal entries are not always repeated. Where two headings read alike, the source gives them in different places.

One assay deals with T1, AfPGM (Aspergillus fumigatus, UniProt Q4WY53).
T1 construct: Full length AfPGM; 6His-GST (N, cleaved yes); made in house; host or cells: E. coli BL21 (DE3) pLysS
In words: biochemical. The note with it: for IC50 / IC50 AfPGM: WT AfPGM 5 nM, no preincubation, 500 μM Glc-1P. As for the experimental part: (§1) The reaction mixture contained MOPS–NaOH (pH 7.4; 50 mM), MgSO4 (1.5 mM), NADP^+ (1 mM), G6PDH (0.01 U) from L. mesenteroides, Glc-1P (500 μM), Glc-1,6-2P (50 μM), and enzyme (5 nM). The reaction was carried out at 25 °C for 6 min in a total volume of 100 μl. Formation of NADPH was detected in real-time (every 1.5 min), measuring fluorescence signal (excitation at 360 nm; emission at 460 nm). To measure the inhibitory activity, compounds with different concentrations (3% (v/v) DMSO) were added to the reaction system. IC50 values were calculated using the product (NADPH) concentration at 6 min with 500 μM Glc-1P.
(§2) Figure S11: Representative enzyme activity assays for PGMs. Error bars represent standard deviation of three determinations. Panel A and B show the time course of PGMs and PGM mutants in which sugar recognition glutamates are mutated to glutamine. […] Values in parentheses indicate the time at which DTT (1 mM) was added.

The next assay addresses T2, AfPGMC353∗ (Aspergillus fumigatus, UniProt Q4WY53, C131S/C242S/C364S).
T2 construct: Full length AfPGM; 6His-GST (N, cleaved yes); made in house; host or cells: E. coli BL21 (DE3) pLysS
In words: G6PDH coupled assay for PGM, AfPGMC353∗ variant (C353 the sole cysteine). Conditions: no preincubation; for IC50: IC50 AfPGMC353, AfPGMC353∗ (all other cysteines mutated to serine) 5 nM. In kind it is biochemical. As for the experimental part:
as §1

For another assay, the target named is T3, HsPGM (Homo sapiens, UniProt P36871).
T3 construct: Full length HsPGM; 6His-GST (N, cleaved yes); made in house; host or cells: E. coli BL21 (DE3) pLysS (same protocol as AfPGM)
T3 sequence (P36871 1-562): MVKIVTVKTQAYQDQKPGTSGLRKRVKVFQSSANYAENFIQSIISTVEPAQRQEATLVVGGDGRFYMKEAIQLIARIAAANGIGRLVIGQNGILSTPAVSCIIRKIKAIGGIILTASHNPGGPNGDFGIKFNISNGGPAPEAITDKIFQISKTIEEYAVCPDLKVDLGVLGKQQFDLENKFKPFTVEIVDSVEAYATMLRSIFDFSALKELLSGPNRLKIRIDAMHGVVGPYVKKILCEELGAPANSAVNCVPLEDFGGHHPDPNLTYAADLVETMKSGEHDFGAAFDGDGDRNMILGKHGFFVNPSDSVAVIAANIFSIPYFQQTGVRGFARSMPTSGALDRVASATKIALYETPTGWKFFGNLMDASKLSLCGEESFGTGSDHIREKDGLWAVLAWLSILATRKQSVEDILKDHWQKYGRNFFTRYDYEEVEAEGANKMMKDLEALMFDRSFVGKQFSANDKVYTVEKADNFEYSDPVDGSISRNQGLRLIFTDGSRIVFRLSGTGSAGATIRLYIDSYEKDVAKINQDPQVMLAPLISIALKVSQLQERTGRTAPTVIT
In words: G6PDH coupled assay for PGM, HsPGM. In kind it is biochemical. As for the experimental part:
as §1, §2

[1] abbreviates: HsPGM 5 nM, no preincubation, > values: highest concentration at which the compound can solubilize, read-out: IC50 HsPGM.

T1 sequence (Q4WY53 whole entry): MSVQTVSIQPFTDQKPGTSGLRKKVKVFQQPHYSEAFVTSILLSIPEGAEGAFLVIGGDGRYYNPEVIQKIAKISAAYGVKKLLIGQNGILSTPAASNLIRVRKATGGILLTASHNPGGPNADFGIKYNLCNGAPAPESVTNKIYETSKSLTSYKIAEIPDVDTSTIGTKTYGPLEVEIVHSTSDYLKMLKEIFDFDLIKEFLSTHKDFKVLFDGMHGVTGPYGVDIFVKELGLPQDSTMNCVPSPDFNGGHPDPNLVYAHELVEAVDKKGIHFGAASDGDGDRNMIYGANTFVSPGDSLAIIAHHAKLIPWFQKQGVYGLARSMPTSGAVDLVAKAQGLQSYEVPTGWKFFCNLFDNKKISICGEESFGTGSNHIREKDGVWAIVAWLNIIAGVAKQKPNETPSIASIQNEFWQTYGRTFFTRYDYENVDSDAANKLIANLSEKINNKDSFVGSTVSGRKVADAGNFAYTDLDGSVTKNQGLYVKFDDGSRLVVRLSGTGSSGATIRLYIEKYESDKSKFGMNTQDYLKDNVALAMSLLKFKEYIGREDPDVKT
T2 sequence (Q4WY53 whole entry C131S/C242S/C364S): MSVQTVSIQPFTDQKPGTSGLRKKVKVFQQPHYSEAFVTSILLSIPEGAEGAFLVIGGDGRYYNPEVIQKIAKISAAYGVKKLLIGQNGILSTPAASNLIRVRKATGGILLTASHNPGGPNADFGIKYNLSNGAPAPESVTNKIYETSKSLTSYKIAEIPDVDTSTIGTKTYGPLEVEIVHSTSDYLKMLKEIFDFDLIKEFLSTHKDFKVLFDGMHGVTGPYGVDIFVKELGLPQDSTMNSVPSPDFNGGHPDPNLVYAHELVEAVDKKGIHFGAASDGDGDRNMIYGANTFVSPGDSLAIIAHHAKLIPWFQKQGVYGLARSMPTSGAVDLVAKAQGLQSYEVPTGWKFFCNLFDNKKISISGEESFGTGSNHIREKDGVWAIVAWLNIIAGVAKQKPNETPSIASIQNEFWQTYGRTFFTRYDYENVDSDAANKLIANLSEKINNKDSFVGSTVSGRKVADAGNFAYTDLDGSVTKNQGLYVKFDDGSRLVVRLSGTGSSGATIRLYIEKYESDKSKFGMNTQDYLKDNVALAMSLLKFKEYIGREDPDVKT

Take `O=c1ccsn1-c1cc(Cl)cc(Cl)c1F` [ISFP5, 2-(3,5-dichloro-2-fluorophenyl)isothiazol-3(2H)-one]: the IC50 is 1 µM and 0.8 µM at AfPGM; 8 µM and 7.8 µM against AfPGMC353∗; 10 ± 1 µM at HsPGM (setting [1]).
`CC(C)(C)OC(=O)c1ccc(-n2sccc2=O)cc1` [ISFP8, tert-butyl 4-(3-oxoisothiazol-2(3H)-yl)benzoate]: the figures for the IC50 at AfPGM, at AfPGMC353∗ and on HsPGM (setting [1]) were 3.1 µM, 6.7 µM and above 100 µM, respectively.
For `O=C(OCc1ccccc1)c1ccc(-n2sccc2=O)cc1` [ISFP10, benzyl 4-(3-oxoisothiazol-2(3H)-yl)benzoate], on AfPGM (15-min preincubation (Fig. S11C, D)), the “Shift in IC50 against AfPGM over preincubation” value is listed as “no shift”. The IC50 was 2 µM against AfPGM; 4 µM and 3.6 µM at AfPGMC353∗; above 100 µM at HsPGM (setting [1]); 6 µM on HsPGM (enzyme preincubated with compound for 15 min (Fig. S11E, F), read-out: IC50 HsPGM after preincubation).
As to `CC(C)OC(=O)c1ccc(-n2sccc2=O)cc1` [ISFP11, isopropyl 4-(3-oxoisothiazol-2(3H)-yl)benzoate], the IC50 was 3.1 µM against AfPGM, 6 µM on AfPGMC353∗ and above 100 µM at HsPGM (setting [1]).
The corresponding values for `O=c1ccsn1-c1cccc([N+](=O)[O-])c1` [ISFP12, 2-(3-nitrophenyl)isothiazol-3(2H)-one] are 5.7 µM, 9.5 µM and above 100 µM.
In the case of `O=c1ccsn1-c1cccc(Cl)c1` [ISFP13, 2-(3-chlorophenyl)isothiazol-3(2H)-one], the IC50 against AfPGM was 5.8 µM; against AfPGMC353∗, 12.2 µM; on HsPGM (setting [1]), 100 µM.
With `N#Cc1cccc(-n2sccc2=O)c1` [ISFP14, 3-(3-oxoisothiazol-2(3H)-yl)benzonitrile], the IC50 is 5.7 µM at AfPGM, 9.5 µM at AfPGMC353∗ and above 100 µM on HsPGM (setting [1]).
Take `CCOC(=O)c1cc2cc(-n3sccc3=O)ccc2o1` [ISFP15, ethyl 5-(3-oxoisothiazol-2(3H)-yl)benzofuran-2-carboxylate]: the IC50 against AfPGM is 2.3 µM; on AfPGMC353∗, 15 µM; at HsPGM (setting [1]) it was above 100 µM.
As to `O=c1ccsn1-c1ccccc1F` [ISFP16, 2-(2-fluorophenyl)isothiazol-3(2H)-one], the IC50 against AfPGM was 21 µM; against AfPGMC353∗ it was 23 µM; at HsPGM (setting [1]), above 400 µM.
On to `O=c1ccsn1-c1cccc2ccccc12` [ISFP17, 2-(naphthalen-1-yl)isothiazol-3(2H)-one], for which the IC50 at AfPGM was 3.3 µM; against AfPGMC353∗, 16 µM; at HsPGM (setting [1]), above 100 µM.
On to `O=C(c1ccc(-n2sccc2=O)cc1)N1CCOCC1` [ISFP18, 2-(4-(morpholine-4-carbonyl)phenyl)isothiazol-3(2H)-one], for which the figures for the IC50 on AfPGM, on AfPGMC353∗ and at HsPGM (setting [1]) were 19 µM, 23 µM and above 100 µM, respectively.
Regarding `CC(=O)OCc1cccc(-n2sccc2=O)c1` [ISFP19, 3-(3-oxoisothiazol-2(3H)-yl)benzyl acetate], the IC50 against AfPGM was 36 µM; at AfPGMC353∗, 115 µM; on HsPGM (setting [1]), above 400 µM.
On to `O=c1ccsn1-c1c(F)cccc1F` [ISFP20, 2-(2,6-difluorophenyl)isothiazol-3(2H)-one], for which the IC50 at AfPGM turned out to be 19 µM; at AfPGMC353∗, 14 µM; at HsPGM (setting [1]), 86 µM.
Consider `O=c1ccsn1-c1cccc(CO)c1` [ISFP21, 2-(3-(hydroxymethyl)phenyl)isothiazol-3(2H)-one], for which the IC50 at AfPGM is 23 µM; at AfPGMC353∗, 25 µM; at HsPGM (setting [1]), above 400 µM.
As to `O=c1ccsn1CCc1ccccc1` [ISFP22, 2-phenethylisothiazol-3(2H)-one], at AfPGM, the “IC50 AfPGM” value is “no inhibition”.
Still for that read-out and setting: with `CCOC(=O)Cn1sccc1=O` [ISFP23, ethyl 2-(3-oxoisothiazol-2(3H)-yl)acetate] the entry was “no inhibition”; with `CCOC(=O)CCn1sccc1=O` [ISFP24, ethyl 3-(3-oxoisothiazol-2(3H)-yl)propanoate], “no inhibition”.
As for `CCOCCn1sccc1=O` [ISFP25, 2-(2-ethoxyethyl)isothiazol-3(2H)-one], on AfPGM, the “IC50 AfPGM” value is on record as “no inhibition”.
Same read-out and setting: with `O=c1ccsn1Cc1ccccc1` [ISFP26, 2-benzylisothiazol-3(2H)-one] the entry was “no inhibition”; with `O=c1cc(-c2ccccc2)sn1-c1cccc(Cl)c1` [ISFP27, 2-(3-chlorophenyl)-5-phenylisothiazol-3(2H)-one], “no inhibition”.
In the case of `Cc1csn(-c2cccc(Cl)c2)c1=O` [ISFP28, 2-(3-chlorophenyl)-4-methylisothiazol-3(2H)-one], the “IC50 AfPGM” value at AfPGM is reported as “no inhibition”.
Consider `Cc1cc(=O)n(-c2cccc(Cl)c2)s1` [ISFP30, 2-(3-chlorophenyl)-5-methylisothiazol-3(2H)-one], for which the IC50 at AfPGM worked out at 5.2 µM. Also, on AfPGMC353∗ (AfPGMC353∗ (all other cysteines mutated to serine) 5 nM), the “IC50 AfPGMC353” value was “no inhibition”. Also, the “IC50 HsPGM” value against HsPGM (HsPGM 5 nM, no preincubation, > values: highest concentration at which the compound can solubilize) is listed as “no inhibition”.
